# Test results from patent EP4653000A1, “INHIBITORS OF PSEUDOMONAS AERUGINOSA ELASTASE (LASB) FOR THE TREATMENT OF PSEUDOMONAS KERATITIS” (Helmholtz-Zentrum für Infektionsforschung GmbH, priority 2024, dated 2025).
# Key:
# [1] = Concentration of HIPS-7178 in eye homogenate and serum in the keratitis model (HPLC-MS/MS); type: in vivo, C57BL/6N mice; settings: topical 5 µL of 1 mg/mL every eight hours along 72h; Figure 2 (a)
# Protocol: Animals. The animal experiments were approved by Saarland University's Animal Welfare Committee (Application number: 17/2021) and conducted in accordance with German and European recommendations and guidelines for the ethical use of animals. The laboratory animals were all C57BL/6N female eight to eleven months old mice. Unlimited access to water and show was secured. Temperature was closely maintained around 22 °C and relative air humidity around 50%. Light and darkness alternated at twelve-hour intervals. All laboratory animals were purchased from Charles River GmbH, Sulzfeld, Germany.
# Infection procedure. Anesthesia and infection were performed as previously published. […]
# Documentation and Treatment. […] Keratitis severity was visualized using a stereomicroscope (Leitz ELVAR, Wetzlar, Germany) at 16× magnification combined with a high-resolution microscope digital camera (Seben GmbH, Berlin, Germany) and evaluated using a previously described clinical scoring scheme (Lyu et al., 2020). […] The body weight of the mice was measured daily and used as welfare indicator. General condition and behavior were also recorded daily. […]
# [2] = system: P. aeruginosa strain PA54; test: LasB and desmosin levels in eye homogenate in the experimental bacterial keratitis model (LC-MS/MS); type: in vivo, C57BL/6N mice; settings: for LasB levels in eye homogenate: compared with vehicle (highest levels), p < 0.05, Figure 2 (b)
# [3] = system: P. aeruginosa strain PA54; test: Antibiotic susceptibility / minimum inhibitory concentration (MIC) of strain PA54; type: cell-based, Pseudomonas aeruginosa; settings: strain PA54, clinical isolate from eye wound swab
# From the text: Pseudomonas aeruginosa. The P. aeruginosa strain PA54 was employed to induce an experimental bacterial keratitis in the aforementioned C57BL/6N mice. The strain PA54 was isolated from a human infection (wound swab from the eye) and collected at Saarland University Medical Center's Institute for Medical Microbiology and Hygienics (IMMH) in 2009.
Compound,LasB levels in eye homogenate [2],sensibility of PA54 (multidrug-resistant classification) [3],also measured
CC(=O)c1ccc(NC(=O)[C@@H](NC(=O)C(CC(C)C)P(=O)(O)O)C(C)C)cc1 (some centres unmarked) [HIPS-7178],reduced levels,,HIPS-7178 concentrations in eye homogenate and serum [1]: similarly high
CO/N=C(\C(=O)N[C@@H]1C(=O)N2C(C(=O)[O-])=C(C[N+]3(C)CCCC3)CS[C@H]12)c1csc(N)n1 [cefepime],,lacking sensibility,
CC(C)(O/N=C(\C(=O)N[C@@H]1C(=O)N2C(C(=O)[O-])=C(C[n+]3ccccc3)CS[C@H]12)c1csc(N)n1)C(=O)O [ceftazidime],,lacking sensibility,
C[C@@H]1O[C@@H]1P(=O)(O)O [fosfomycin],,lacking sensibility,
C[C@@H](O)[C@H]1C(=O)N2C(C(=O)O)=C(S[C@@H]3CN[C@H](C(=O)N(C)C)C3)[C@H](C)[C@H]12 [meropenem],reduced levels,,"Desmosin levels in eye ([2]; compared with uninfected control, Figure 2 (c)): similarly high levels as uninfected group"
gentamicin,,lacking sensibility,
